Data: ChEMBL document CHEMBL1949541, “Discovery of 7-arylsulfonyl-1,2,3,4, 4a,9a-hexahydro-benzo[4,5]furo[2,3-c]pyridines: identification of a potent and selective 5-HT₆ receptor antagonist showing activity in rat social recognition test” (Bioorg Med Chem Lett, 2012)

Tests used:
Rattus norvegicus [1] = assay: AUC in po dosed rat; type: ADME, organism-based, Plasma; conditions: in vivo
Rattus norvegicus [2] = assay: (§1) Oral bioavailability in rat; type: ADME, organism-based; conditions: in vivo
[3] = biological target: T1, 5-hydroxytryptamine receptor 6 (Homo sapiens, UniProt P50406); assay: Displacement of [3H]LSD from human recombinant 5HT6 receptor
[4] = Ratio of drug uptake in brain to plasma in rat at 5 mg/kg, po; type: ADME, organism-based; parameters: dose 5 mg/kg, route oral; conditions: read-out: BPR
Rattus norvegicus [5] = assay: Half life in rat at 1 mg/kg, iv; type: ADME, organism-based; parameters: dose 1 mg/kg, route intravenous; conditions: in vivo
[6] = Oral bioavailability in rat at 5 mg/kg at 24 hrs; type: ADME, organism-based; conditions: in vivo
Rattus norvegicus [7] = assay: Volume of distribution in rat at 1 mg/kg, iv; type: ADME, organism-based; parameters: dose 1 mg/kg, route intravenous; conditions: in vivo
[8] = biological target: T2, Sodium-dependent noradrenaline transporter (Homo sapiens, UniProt P23975); conditions: 10 uM
Description: Inhibition of NA transporter at 10 uM

[9] = biological target: Muscarinic acetylcholine receptor M4 (Homo sapiens) (UniProt P08173); conditions: 10 uM
Description: Inhibition of M4 receptor at 10 uM

[10] = biological target: 5-hydroxytryptamine receptor 5A (Homo sapiens) (UniProt P47898); assay: Inhibition of human 5HT5A at 10 uM
[11] = biological target: T3, 5-hydroxytryptamine receptor 2B (Homo sapiens, UniProt P41595); assay: Inhibition of human 5HT2B at 10 uM
[12] = biological target: 5-hydroxytryptamine receptor 2C (Homo sapiens) (UniProt P28335); assay: Inhibition of human 5HT2C at 10 uM
[13] = biological target: 5-hydroxytryptamine receptor 3A (Homo sapiens) (UniProt P46098); assay: Inhibition of human 5HT3 at 10 uM
[14] = biological target: Muscarinic acetylcholine receptor M1 (Homo sapiens) (UniProt P11229); conditions: 10 uM
Description: Inhibition of M1 receptor at 10 uM

[15] = biological target: 5-hydroxytryptamine receptor 7 (Homo sapiens) (UniProt P34969); assay: Inhibition of human 5HT7 at 10 uM
[16] = biological target: Muscarinic acetylcholine receptor M2 (Homo sapiens) (UniProt P08172); conditions: 10 uM
Description: Inhibition of M2 receptor at 10 uM

[17] = biological target: T4, 5-hydroxytryptamine receptor 2A (Homo sapiens, UniProt P28223); assay: Inhibition of human 5HT2A at 10 uM
Rattus norvegicus [18] = assay: Antiamnesic activity in ip dosed rat assessed as decrease in ratio of investigation duration of familiar juvenile rat administered 120 mins prior to test by social recognition test; type: functional, organism-based
[19] = biological target: 5-hydroxytryptamine receptor 1B (Rattus norvegicus) (UniProt P28564); assay: Inhibition of rat […] at 10 uM
[20] = biological target: 5-hydroxytryptamine receptor 1A (Homo sapiens) (UniProt P08908); assay: Inhibition of human 5HT1A at 10 uM
[21] = biological target: T5, Sodium-dependent dopamine transporter (Homo sapiens, UniProt Q01959); conditions: 10 uM
Description: Inhibition of DA transporter at 10 uM

[22] = as §1; type: ADME, organism-based; conditions: in vivo
[23] = Half life in mouse liver microsomes; type: ADME, Microsome
[24] = Half life in dog liver microsomes; type: ADME, Canis lupus familiaris, Microsome
[25] = Half life in rat liver microsomes; type: ADME, Microsome
[26] = Half life in human liver microsomes; type: ADME, Microsome
[27] = biological target: Muscarinic acetylcholine receptor M4 (Homo sapiens, UniProt P08173); assay: Inhibition of M4 receptor
Cytochrome P450 2D6 = Cytochrome P450 2D6 (Homo sapiens, UniProt P10635); assay: Inhibition of CYP 2D6; type: ADME
[28] = biological target: T4, 5-hydroxytryptamine receptor 2A; assay: Inhibition of human 5HT2A
Rattus norvegicus [29] = assay: Antiamnesic activity in rat assessed as decrease in ratio of investigation duration of familiar juvenile rat at 1 mg/kg, ip administered 120 mins prior to test by social recognition test; type: functional; parameters: scale not given: the % may be the effect or the level left; conditions: route intraperitoneal
Cytochrome P450 1A2 = Cytochrome P450 1A2 (Homo sapiens, UniProt P05177); assay: Inhibition of CYP 1A2; type: ADME
[30] = Plasma protein binding in rat; type: ADME, cell-free; conditions: read-out: PPB (converted)
[31] = biological target: Muscarinic acetylcholine receptor M2 (Homo sapiens, UniProt P08172); assay: Inhibition of M2 receptor
[32] = Aqueous solubility at pH 2; type: physicochemical; conditions: buffer
[33] = biological target: T5, Sodium-dependent dopamine transporter; assay: Inhibition of DA transporter
[34] = biological target: T2, Sodium-dependent noradrenaline transporter; assay: Inhibition of NA transporter
[35] = Apparent permeability from apical to basal side of MDCK2-MDR1; type: ADME, cell-based, Canis lupus familiaris, MDCK-II; conditions: dog, MDCK-MDR1
Rattus norvegicus [36] = assay: Antiamnesic activity in rat assessed as decrease in ratio of investigation duration of familiar juvenile rat at 0.3 mg/kg, ip administered 120 mins prior to test by social recognition test; type: functional; parameters: scale not given: the % may be the effect or the level left; conditions: route intraperitoneal
[37] = biological target: 5-hydroxytryptamine receptor 2C (Homo sapiens, UniProt P28335); assay: Inhibition of human 5HT2C
Cytochrome P450 3A4 = Cytochrome P450 3A4 (Homo sapiens, UniProt P08684); assay: Inhibition of CYP 3A4; type: ADME
[38] = biological target: Voltage-gated inwardly rectifying potassium channel KCNH2 (Homo sapiens, UniProt Q12809); assay: Inhibition of human ERG by patch clamp assay
[39] = biological target: Muscarinic acetylcholine receptor M1 (Homo sapiens, UniProt P11229); assay: Inhibition of M1 receptor
Rattus norvegicus [40] = assay: Antiamnesic activity in rat assessed as decrease in ratio of investigation duration of familiar juvenile rat at 3 mg/kg, ip administered 120 mins prior to test by social recognition test; type: functional; parameters: scale not given: the % may be the effect or the level left; conditions: route intraperitoneal
[41] = Inhibition of calcium channel-L type
[42] = Plasma protein binding in human; type: ADME, cell-free; conditions: read-out: PPB (converted)
[43] = Aqueous solubility at pH 7.4; type: physicochemical; conditions: buffer
[44] = biological target: T3, 5-hydroxytryptamine receptor 2B; assay: Inhibition of human 5HT2B
[45] = biological target: 5-hydroxytryptamine receptor 6 (Rattus norvegicus, UniProt P31388); assay: Displacement of [3H]LSD from rat recombinant 5HT6 receptor
Cytochrome P450 2C9 = Cytochrome P450 2C9 (Homo sapiens, UniProt P11712); assay: Inhibition of CYP 2C9; type: ADME
[46] = biological target: T1, 5-hydroxytryptamine receptor 6; assay: Antagonist activity at human 5HT6 receptor expressed in human astrocytoma cells assessed as inhibition of cAMP production; type: functional, cell-based
Cytochrome P450 2C19 = Cytochrome P450 2C19 (Homo sapiens, UniProt P33261); assay: Inhibition of CYP 2C19; type: ADME
[47] = Oral bioavailability in rat at 5 mg/kg; type: ADME, organism-based; conditions: in vivo
Rattus norvegicus [48] = assay: Ratio of drug uptake in brain to plasma in rat at 5 mg/kg, po

T1 sequence (P50406 whole entry): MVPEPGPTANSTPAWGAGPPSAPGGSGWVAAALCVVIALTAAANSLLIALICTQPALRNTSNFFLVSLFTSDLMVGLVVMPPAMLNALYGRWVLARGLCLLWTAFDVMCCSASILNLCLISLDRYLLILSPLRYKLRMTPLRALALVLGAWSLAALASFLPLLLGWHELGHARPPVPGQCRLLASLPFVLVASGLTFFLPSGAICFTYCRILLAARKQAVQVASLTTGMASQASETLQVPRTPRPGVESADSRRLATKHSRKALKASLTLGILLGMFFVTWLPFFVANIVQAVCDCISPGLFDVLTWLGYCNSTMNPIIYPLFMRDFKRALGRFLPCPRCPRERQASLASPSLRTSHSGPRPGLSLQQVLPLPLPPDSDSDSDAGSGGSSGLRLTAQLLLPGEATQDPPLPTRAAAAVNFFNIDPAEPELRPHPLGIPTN
T2 sequence (P23975 whole entry): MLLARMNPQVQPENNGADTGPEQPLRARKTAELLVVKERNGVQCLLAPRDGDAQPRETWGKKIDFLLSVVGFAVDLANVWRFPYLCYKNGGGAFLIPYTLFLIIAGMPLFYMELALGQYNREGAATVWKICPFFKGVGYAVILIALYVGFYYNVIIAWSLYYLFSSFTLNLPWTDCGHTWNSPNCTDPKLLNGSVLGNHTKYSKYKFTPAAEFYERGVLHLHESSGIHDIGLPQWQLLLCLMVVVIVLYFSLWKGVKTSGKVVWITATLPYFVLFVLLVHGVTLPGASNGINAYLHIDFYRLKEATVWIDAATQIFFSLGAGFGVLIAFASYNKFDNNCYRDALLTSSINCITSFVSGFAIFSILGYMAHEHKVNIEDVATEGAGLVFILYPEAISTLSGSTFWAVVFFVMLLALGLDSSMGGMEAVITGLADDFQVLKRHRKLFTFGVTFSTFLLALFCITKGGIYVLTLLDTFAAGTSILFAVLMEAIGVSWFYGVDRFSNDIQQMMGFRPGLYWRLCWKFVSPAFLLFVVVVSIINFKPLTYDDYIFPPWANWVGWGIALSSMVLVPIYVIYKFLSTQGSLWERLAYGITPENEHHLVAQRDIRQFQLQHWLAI
T5 sequence (Q01959 whole entry): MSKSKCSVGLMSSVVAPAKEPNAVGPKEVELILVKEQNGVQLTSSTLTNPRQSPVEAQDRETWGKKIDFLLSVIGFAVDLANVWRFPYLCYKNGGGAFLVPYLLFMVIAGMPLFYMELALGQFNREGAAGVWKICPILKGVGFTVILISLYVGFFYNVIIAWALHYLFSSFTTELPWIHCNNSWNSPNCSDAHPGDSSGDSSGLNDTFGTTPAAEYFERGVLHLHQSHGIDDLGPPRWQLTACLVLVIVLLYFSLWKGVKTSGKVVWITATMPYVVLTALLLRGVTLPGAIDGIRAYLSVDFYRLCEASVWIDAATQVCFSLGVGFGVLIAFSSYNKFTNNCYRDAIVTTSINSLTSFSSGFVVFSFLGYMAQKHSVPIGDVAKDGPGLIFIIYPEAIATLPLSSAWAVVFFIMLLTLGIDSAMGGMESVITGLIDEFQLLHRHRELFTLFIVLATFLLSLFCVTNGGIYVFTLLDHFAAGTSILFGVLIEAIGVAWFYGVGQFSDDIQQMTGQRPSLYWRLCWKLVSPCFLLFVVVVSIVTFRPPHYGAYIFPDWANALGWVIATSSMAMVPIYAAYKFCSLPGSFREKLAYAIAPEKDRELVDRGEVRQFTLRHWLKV
Sequence of 5-hydroxytryptamine receptor 6 (Rattus norvegicus, UniProt P31388) (P31388 whole entry): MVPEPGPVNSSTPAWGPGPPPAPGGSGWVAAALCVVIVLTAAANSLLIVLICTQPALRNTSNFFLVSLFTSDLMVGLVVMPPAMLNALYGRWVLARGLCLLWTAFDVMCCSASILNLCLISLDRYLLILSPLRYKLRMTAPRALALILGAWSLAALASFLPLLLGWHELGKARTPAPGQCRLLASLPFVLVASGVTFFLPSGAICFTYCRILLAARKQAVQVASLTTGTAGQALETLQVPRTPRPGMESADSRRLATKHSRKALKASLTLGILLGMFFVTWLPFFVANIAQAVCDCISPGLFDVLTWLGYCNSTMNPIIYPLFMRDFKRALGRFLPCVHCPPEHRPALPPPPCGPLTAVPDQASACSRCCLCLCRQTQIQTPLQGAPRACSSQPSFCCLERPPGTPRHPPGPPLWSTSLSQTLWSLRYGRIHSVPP
T4 sequence (P28223 whole entry): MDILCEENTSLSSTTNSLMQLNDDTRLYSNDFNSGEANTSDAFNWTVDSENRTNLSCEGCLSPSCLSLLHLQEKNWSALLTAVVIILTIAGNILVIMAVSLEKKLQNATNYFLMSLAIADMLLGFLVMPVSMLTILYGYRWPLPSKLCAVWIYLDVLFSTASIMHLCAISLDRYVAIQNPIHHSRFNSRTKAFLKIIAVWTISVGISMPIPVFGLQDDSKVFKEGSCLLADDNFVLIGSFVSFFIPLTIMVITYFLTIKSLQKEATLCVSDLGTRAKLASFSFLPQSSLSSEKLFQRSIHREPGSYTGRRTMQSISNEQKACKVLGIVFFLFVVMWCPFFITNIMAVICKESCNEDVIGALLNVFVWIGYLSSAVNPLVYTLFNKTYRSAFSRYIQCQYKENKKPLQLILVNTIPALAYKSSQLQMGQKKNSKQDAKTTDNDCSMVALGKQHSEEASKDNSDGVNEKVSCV
T3 sequence (P41595 whole entry): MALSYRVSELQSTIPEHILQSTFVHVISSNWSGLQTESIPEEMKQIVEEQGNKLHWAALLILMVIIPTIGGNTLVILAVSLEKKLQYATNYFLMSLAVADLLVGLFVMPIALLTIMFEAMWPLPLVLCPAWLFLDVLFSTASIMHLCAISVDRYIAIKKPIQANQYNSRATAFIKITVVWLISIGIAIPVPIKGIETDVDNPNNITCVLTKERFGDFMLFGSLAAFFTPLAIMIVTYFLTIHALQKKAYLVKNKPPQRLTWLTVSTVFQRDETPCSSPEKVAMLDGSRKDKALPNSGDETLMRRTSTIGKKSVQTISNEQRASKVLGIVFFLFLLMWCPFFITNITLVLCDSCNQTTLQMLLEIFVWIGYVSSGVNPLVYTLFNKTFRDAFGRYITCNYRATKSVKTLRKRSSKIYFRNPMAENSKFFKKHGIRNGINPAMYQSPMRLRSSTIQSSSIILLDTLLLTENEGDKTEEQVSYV
Sequence of 5-hydroxytryptamine receptor 1A (Homo sapiens) (P08908 whole entry): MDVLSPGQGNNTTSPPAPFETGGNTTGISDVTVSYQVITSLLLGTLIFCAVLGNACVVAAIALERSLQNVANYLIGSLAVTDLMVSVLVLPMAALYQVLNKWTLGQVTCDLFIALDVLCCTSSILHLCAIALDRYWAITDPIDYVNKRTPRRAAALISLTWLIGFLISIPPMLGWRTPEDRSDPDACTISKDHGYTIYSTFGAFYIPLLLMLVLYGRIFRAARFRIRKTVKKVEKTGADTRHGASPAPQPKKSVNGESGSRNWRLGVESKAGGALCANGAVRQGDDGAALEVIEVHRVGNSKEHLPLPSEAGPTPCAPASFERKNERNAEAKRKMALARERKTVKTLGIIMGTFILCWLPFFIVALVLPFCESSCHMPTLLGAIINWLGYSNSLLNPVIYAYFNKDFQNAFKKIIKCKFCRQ
Sequence of 5-hydroxytryptamine receptor 3A (Homo sapiens) (P46098 whole entry): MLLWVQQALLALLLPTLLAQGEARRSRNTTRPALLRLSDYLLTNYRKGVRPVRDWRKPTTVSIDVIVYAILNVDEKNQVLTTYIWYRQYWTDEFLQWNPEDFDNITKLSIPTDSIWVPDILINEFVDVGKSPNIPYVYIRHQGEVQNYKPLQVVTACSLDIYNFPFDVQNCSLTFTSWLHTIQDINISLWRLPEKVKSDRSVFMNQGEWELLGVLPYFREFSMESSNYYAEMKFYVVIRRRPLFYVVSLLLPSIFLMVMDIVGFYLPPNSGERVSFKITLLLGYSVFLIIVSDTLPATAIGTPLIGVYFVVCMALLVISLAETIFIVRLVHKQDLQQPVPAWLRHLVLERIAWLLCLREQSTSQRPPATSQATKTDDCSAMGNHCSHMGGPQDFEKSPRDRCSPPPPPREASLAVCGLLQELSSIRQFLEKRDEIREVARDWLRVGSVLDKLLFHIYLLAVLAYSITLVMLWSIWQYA
Sequence of Cytochrome P450 2C19 (P33261 whole entry): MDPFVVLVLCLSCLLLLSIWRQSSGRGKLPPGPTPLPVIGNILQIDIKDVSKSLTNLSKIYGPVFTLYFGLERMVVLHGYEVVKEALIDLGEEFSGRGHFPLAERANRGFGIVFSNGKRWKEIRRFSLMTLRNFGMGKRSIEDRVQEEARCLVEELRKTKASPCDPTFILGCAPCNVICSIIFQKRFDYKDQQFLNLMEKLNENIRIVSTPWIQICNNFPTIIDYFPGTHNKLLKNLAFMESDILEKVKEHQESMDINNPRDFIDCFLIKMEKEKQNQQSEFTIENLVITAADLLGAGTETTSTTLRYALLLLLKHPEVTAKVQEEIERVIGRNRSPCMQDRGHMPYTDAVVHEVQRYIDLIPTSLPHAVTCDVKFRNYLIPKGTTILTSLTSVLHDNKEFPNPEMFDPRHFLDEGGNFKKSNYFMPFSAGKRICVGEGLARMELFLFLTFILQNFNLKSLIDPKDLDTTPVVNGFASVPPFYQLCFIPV
Sequence of Cytochrome P450 2C9 (P11712 whole entry): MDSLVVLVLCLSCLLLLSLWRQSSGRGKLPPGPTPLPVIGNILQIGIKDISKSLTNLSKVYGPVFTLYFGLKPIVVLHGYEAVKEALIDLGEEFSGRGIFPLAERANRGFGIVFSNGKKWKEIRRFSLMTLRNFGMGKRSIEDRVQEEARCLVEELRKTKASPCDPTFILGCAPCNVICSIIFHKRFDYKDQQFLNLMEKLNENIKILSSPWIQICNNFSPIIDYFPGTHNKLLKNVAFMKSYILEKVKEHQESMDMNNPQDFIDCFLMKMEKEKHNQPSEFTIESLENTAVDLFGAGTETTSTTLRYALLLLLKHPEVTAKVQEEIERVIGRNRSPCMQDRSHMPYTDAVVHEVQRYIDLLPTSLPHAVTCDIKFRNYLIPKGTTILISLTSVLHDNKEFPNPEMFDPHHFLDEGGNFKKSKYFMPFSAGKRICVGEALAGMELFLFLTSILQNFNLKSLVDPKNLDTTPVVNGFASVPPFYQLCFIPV

## CC(C)Oc1cccc(S(=O)(=O)c2ccc3c(c2)O[C@H]2CNCC[C@@H]32)c1.Cl (single isomer, unassigned; enantiomer 2)
Rattus norvegicus [1]
  AUC: 310 ng·h/mL
Rattus norvegicus [2]
  F: 26%
[3]
  Ki: 31 nM

## O=S(=O)(c1ccccc1)c1cnc2c(N3CCNCC3)cccc2c1 [INTEPIRDINE]
[4]
  Kp: 0.7
Rattus norvegicus [5]
  t1/2: 42 min
[6]
  bioavailability: 24%
Rattus norvegicus [7]
  Vd: 5.7 L/kg

## COc1cc(OC(C)C)cc(S(=O)(=O)c2ccc3c(c2)O[C@H]2CNCC[C@@H]32)c1 (single isomer, unassigned; enantiomer 1)
[8]
  inhibition: > 50%
[9]
  inhibition: > 50%
[10]
  inhibition: 6%
[11]
  inhibition: 62%
[12]
  inhibition: 71%
[13]
  inhibition: 25%
[14]
  inhibition: > 50%
[15]
  inhibition: 6%
[16]
  inhibition: > 50%
[17]
  inhibition: 83%
Rattus norvegicus [18]
  Activity: Dose-dependent effect
[19]
  inhibition: 16%
[20]
  inhibition: 19%
[21]
  inhibition: > 50%

## Cl.O=S(=O)(c1cccc(F)c1)c1ccc2c(c1)O[C@H]1CNCC[C@@H]21 (single isomer, unassigned; enantiomer 1)
Rattus norvegicus [1]
  AUC: 0 ng·h/mL
[22]
  bioavailability: < 1%
[3]
  Ki: 11 nM

## Cl.O=S(=O)(c1cccc(F)c1)c1ccc2c(c1)O[C@H]1CNCC[C@@H]21 (single isomer, unassigned; enantiomer 2)
Rattus norvegicus [1]
  AUC: 434 ng·h/mL
Rattus norvegicus [2]
  F: 2%
[3]
  Ki: 85 nM

## Cl.O=S(=O)(c1ccccc1)c1ccc2c3c(oc2c1)CNCC3
[23]
  half-life: < 5 min
[24]
  half-life: 10 min
[22]
  bioavailability: 7%
[3]
  Ki: 2.9 nM
[25]
  half-life: < 5 min
[26]
  half-life: > 40 min

## COc1cc(OC(C)C)cc(S(=O)(=O)c2ccc3c(c2)O[C@H]2CNCC[C@@H]32)c1.Cl (single isomer, unassigned; enantiomer 1)
[27]
  IC50: 4800 nM
Cytochrome P450 2D6
  IC50: > 30000 nM
[23]
  half-life: > 40 min
[28]
  Ki: 3700 nM
Rattus norvegicus [29]
  Activity: 21%
[4]
  Kp: 2.76
Cytochrome P450 1A2
  IC50: > 30000 nM
[24]
  half-life: > 40 min
[30]
  fraction unbound: 0.027
[31]
  IC50: 7900 nM
[32]
  solubility: > 130 µg/mL
[33]
  IC50: 6300 nM
[34]
  IC50: 4400 nM
[35]
  Papp A→B: 2.88 ×10⁻⁶ cm/s
Rattus norvegicus [36]
  Activity: 22%
[37]
  Ki: 19000 nM
Rattus norvegicus [5]
  t1/2: 150 min
[6]
  bioavailability: 39%
Cytochrome P450 3A4
  IC50: > 5900 nM
[38]
  IC50: 3300 nM
[39]
  IC50: 2200 nM
Rattus norvegicus [40]
  Activity: 35%
Rattus norvegicus [7]
  Vd: 4.3 L/kg
[41]
  IC50: 3900 nM
[42]
  fraction unbound: 0.046
[43]
  solubility: > 130 µg/mL
[3]
  Ki: 4 nM
[25]
  half-life: > 40 min
[44]
  Ki: 6200 nM
[45]
  Ki: 27 nM
Cytochrome P450 2C9
  IC50: > 30000 nM
[46]
  IC50: 67 nM
[26]
  half-life: > 40 min
Cytochrome P450 2C19
  IC50: > 22900 nM

## CC(C)Oc1cccc(S(=O)(=O)c2ccc3c(c2)O[C@H]2CNCC[C@@H]32)c1.Cl (single isomer, unassigned; enantiomer 1)
Rattus norvegicus [1]
  AUC: 637 ng·h/mL
Rattus norvegicus [2]
  F: 9%
[3]
  Ki: 17 nM

## Cl.O=S(=O)(c1ccccc1)c1ccc2c(c1)O[C@H]1CNCC[C@@H]21 (racemic)
[23]
  half-life: > 40 min
[24]
  half-life: > 40 min
[22]
  bioavailability: 15%
[3]
  Ki: 83 nM
[25]
  half-life: > 40 min
[26]
  half-life: > 40 min

## COc1cc(OC(C)C)cc(S(=O)(=O)c2ccc3c(c2)O[C@H]2CNCC[C@@H]32)c1.Cl (single isomer, unassigned; enantiomer 2)
[47]
  bioavailability: 11%
Rattus norvegicus [48]
  BPR: 2.29
Rattus norvegicus [5]
  t1/2: 24 min
Rattus norvegicus [7]
  Vd: 1 L/kg
[3]
  Ki: 12 nM
[45]
  Ki: 55 nM
[46]
  IC50: 45 nM
